From the supplement of paper PMC8988213

Columns and labels:
[1] = tested on: ID188 patient-derived PDAC 2D line (pre-FOLFIRINOX); experiment: normalised area under dose-response curve (viability relative to DMSO, 7 doses up to 10 µM) (fraction (AUC)); higher = less sensitive (more viability retained); details: 72 h; top dose: 10 µM
Procedure: (§1)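 Patient-derived 2D PDAC cells (ID188 pre-FOLFIRINOX, passage 5+27; ID211 post-FOLFIRINOX, passage 9+11), 1,500-3,000 cells/well in 96-well plates, were treated with a 415-compound Selleck library in seven concentrations (3-fold dilution series, top 10 µM) for 72 h. Viability was read by CellTiter-Glo ATP luminescence, normalised to the DMSO control, and the area under the dose-response curve was computed with the GRmetrics R package; a lower AUC means higher sensitivity.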

[2] = tested on: ID211 patient-derived PDAC 2D line (post-FOLFIRINOX); experiment: as above; details: 72 h; top dose: 10 µM
Procedure: as §1

| Compound | normalised area under dose-response curve [1] | normalised area under dose-response curve [2] |
| --- | --- | --- |
| C=CC(=O)Nc1cccc(Oc2nc(Nc3ccc(N4CCN(C)CC4)cc3)nc3ccsc23)c1 | 0.921 | 0.75 |
| CC(=O)Nc1cccc(-n2c(=O)n(C3CC3)c(=O)c3c(Nc4ccc(I)cc4F)n(C)c(=O)c(C)c32)c1 | 0.553 | 0.197 |
| CC(=O)c1c(C)c2cnc(Nc3ccc(N4CCNCC4)cn3)nc2n(C2CCCC2)c1=O | 0.882 | 0.865 |
| CC(=O)c1cc([N+](=O)[O-])c(Sc2ccc(F)cc2F)s1 | 0.93 | 0.966 |
| CC(=O)c1cc([N+](=O)[O-])c(Sc2cccc(Cl)c2Cl)s1 | 0.98 | 0.848 |
| CC(C)(C)Cn1c(N)nc2ccc(-c3[nH]c(C(C)(C)C)nc3-c3ccc(F)cc3)nc21 | 0.992 | 0.862 |
| CC(C)Nc1cc(-c2c[nH]c(C(=O)N[C@H](CO)c3cccc(Cl)c3)c2)c(Cl)cn1 | 0.881 | 0.687 |
| CC(C)c1cc(C(=O)N2Cc3ccc(CN4CCN(C)CC4)cc3C2)c(O)cc1O | 0.665 | 0.458 |
| CCNC(=O)C#Cc1ccc2c(C(=Nc3ccc(CN(C)C)cc3)c3ccccc3)c(O)[nH]c2c1 | 0.621 | 0.264 |
| CCOc1ccn(-c2ccc(F)cc2)c(=O)c1C(=O)Nc1ccc(Oc2ccnc(N)c2Cl)c(F)c1 | 0.882 | 0.945 |
| CCc1cncnc1N1CCN(Cc2nc3ccc(C(F)(F)F)cc3[nH]2)CC1 | 0.92 | 0.936 |
| CCn1c(=O)c(-c2cc[nH]n2)cc2c(C)nc(N)nc21 | 0.814 | 0.792 |
| CN(C(=O)c1ccc(F)cc1C(F)(F)F)C1CCN(c2nnc(-c3ccnn3C)c3ccccc23)CC1 | 0.939 | 0.855 |
| CN(C)CC#Cc1ccc(OCCCc2sc(N3CCc4cccc(C(=O)Nc5nc6ccccc6s5)c4C3)nc2C(=O)O)c(F)c1 | 0.789 | 0.592 |
| CN(C)Cc1c(C(=O)NCCOc2ccc(C(=O)NO)cc2)oc2ccccc12 | 0.733 | 0.748 |
| CN(c1ncccc1CNc1nc(Nc2ccc3c(c2)CC(=O)N3)ncc1C(F)(F)F)S(C)(=O)=O | 0.89 | 0.795 |
| CN1CCN(c2ccc(Nc3ncc4cc(C#N)c(=O)n(C5CCCC5)c4n3)cc2)CC1 | 0.98 | 0.852 |
| CNC(=O)c1ccc(-c2cnc3ncc(Cc4ccc5ncccc5c4)n3n2)cc1F | 0.956 | 0.855 |
| CNS(=O)(=O)Nc1nccc(Cc2c(C)c3ccc(Oc4ncccn4)cc3oc2=O)c1F | 0.679 | 0.409 |
| COCCOc1ccc2c(c1)ncn2-c1ccc2cccc(N3CCC(N)CC3)c2n1 | 0.974 | 1.03 |

| Compound | normalised area under dose-response curve [1] | normalised area under dose-response curve [2] |
| --- | --- | --- |
| COc1cc(OC)c(/C=C/S(=O)(=O)Cc2ccc(OC)c(NCC(=O)O)c2)c(OC)c1 | 0.746 | 0.557 |
| COc1cc2ncnc(Oc3cccc(NC(=O)Nc4cc(C(C)(C)C(F)(F)F)on4)c3)c2cc1OC | 0.948 | 0.832 |
| COc1ccccc1S(=O)(=O)Nc1ccc2c(c1)CN(C)C(=O)N2 | 0.921 | 0.753 |
| C[C@@H](C(=O)Nc1ccc(Cl)cc1)C1CCC(c2ccnc3ccc(F)cc23)CC1 (stereo partly specified) | 0.882 | 0.863 |
| C[C@@H](N)[C@H]1CC[C@H](C(=O)Nc2ccncc2)CC1 | 0.941 | 0.922 |
| C[C@@H]1CCN(C(=O)CC#N)C[C@@H]1N(C)c1ncnc2[nH]ccc12 | 0.759 | 0.881 |
| Cc1cc2c(F)c(Oc3ncnn4cc(OC[C@@H](C)O)c(C)c34)ccc2[nH]1 | 0.918 | 0.813 |
| Cc1ccc(C(=O)N(CCCN)[C@@H](c2oc3cc(Cl)ccc3c(=O)c2Cc2ccccc2)C(C)C)cc1 | 0.51 | 0.708 |
| Cc1ccc(C(=O)Nc2ccc(CN3CCN(C)CC3)c(C(F)(F)F)c2)cc1C#Cc1cnc2cccnn12 | 0.782 | 0.696 |
| Cc1ccc(S(=O)(=O)Cc2nc(-c3ccc(C(=O)NCc4cccnc4)cc3)oc2C)cc1 | 0.358 | 0.275 |
| Cc1ccc2nc(NCCN)c3ncc(C)n3c2c1 | 0.853 | 0.857 |
| Cc1cnc(NC(=O)Nc2cc(Br)c(C)cc2OC[C@@H]2CNCCO2)cn1 | 0.731 | 0.869 |
| Cc1nc(Nc2n[nH]c3c2CN(C(=O)N[C@H](CN(C)C)c2ccccc2)C3(C)C)c2sccc2n1 | 0.578 | 0.551 |
| Cc1nn(C)c(COc2ccc(N3CCN(S(=O)(=O)N(C)C)CC3)cc2)c1-c1cccc2c(CCCOc3cccc4ccccc34)c(C(=O)O)n(CCN3CCOCC3)c12 | 0.98 | 0.938 |
| Cn1cc(C2=C(c3ccc(Cl)cc3Cl)C(=O)NC2=O)c2ccccc21 | 0.813 | 0.787 |
| Cn1cnc2c(F)c(Nc3ccc(Br)cc3F)c(C(=O)NOCCO)cc21 | 0.732 | 0.457 |
| Cn1ncc(Cl)c1-c1cc(C(=O)N[C@H](CN)Cc2ccc(F)c(F)c2)oc1Cl | 0.805 | 0.789 |
| N#CC[C@H](C1CCCC1)n1cc(-c2ncnc3[nH]ccc23)cn1 | 0.945 | 0.892 |
| N#Cc1c(O)c2c(-c3ccc(-c4ccccc4O)cc3)csc2[nH]c1=O | 0.977 | 0.782 |
| NC(=O)[C@@H](CCC(F)(F)F)N(Cc1ccc(-c2ncon2)cc1F)S(=O)(=O)c1ccc(Cl)cc1 | 0.882 | 0.77 |

| Compound | normalised area under dose-response curve [1] | normalised area under dose-response curve [2] |
| --- | --- | --- |
| NC[C@@](O)(c1ccc(Cl)cc1)c1ccc(-c2cn[nH]c2)cc1 | 1.03 | 0.981 |
| Nc1nc2c(cnn2CCc2ccccc2)c2nc(-c3ccco3)nn12 | 0.94 | 0.905 |
| Nc1nccc(Oc2ccc(NC(=O)c3c[nH]cc(-c4ccc(F)cc4)c3=O)cc2F)c1Cl | 0.939 | 0.911 |
| Nc1ncnc2n[nH]c(Nc3ccc(F)cc3)c12 | 0.947 | 0.864 |
| O=C(NNc1ccccc1)c1ccncc1 | 0.961 | 0.899 |
| O=C(Oc1cc(S(=O)(=O)c2ccccc2)ccc1[N+](=O)[O-])c1ccc(Cl)cc1 | 0.959 | 0.869 |
| O=C1NCCCc2c1oc1ccc(O)cc21 | 0.904 | 0.878 |
| O=S(=O)(N=Cc1c(O)ccc2ccccc12)c1cccs1 | 0.913 | 0.941 |
| O=c1[nH]c(C2CCCN2)nc2c1oc1ccc(Cl)cc12 (stereo unspecified) | 0.916 | 0.897 |
| OCc1ccc(-c2ccc(-c3ccc(CO)s3)o2)s1 | 0.917 | 0.896 |
| Oc1c2ccccc2c2c3c(cccc13)N=N2 | 0.881 | 1.04 |
| Oc1ccc(-c2nc(-c3ccc(F)cc3)c(-c3ccncc3)[nH]2)cc1 | 0.95 | 1 |
| O=C(O)C(Cc1ccccc1[N+](=O)[O-])=NNc1nc(-c2ccc(Cl)c(Cl)c2)cs1 (mixture of isomers) [4EGI-1] | 0.549 | 0.889 |
| Cc1nnc(C(C)C)n1C1C[C@H]2CC[C@@H](C1)N2CC[C@H](NC(=O)C1CCC(F)(F)CC1)c1ccccc1 (stereo in doubt) [Maraviroc] | 1 | 0.865 |
| O=C(O)c1ccc(N2C(=O)/C(=C\c3ccc(-c4ccc([N+](=O)[O-])cc4)o3)C=C2c2ccccc2)cc1 [4E1RCat] | 0.946 | 0.895 |
| Cc1sc2c(c1C)C(c1ccc(Cl)cc1)=N[C@@H](CC(=O)OC(C)(C)C)c1nnc(C)n1-2 [(+)-JQ1] | 0.842 | 0.652 |
| COc1cc2c(cc1OCCCN1CCCC1)N=C(N)C21CCC1 [A-366] | 0.983 | 0.895 |
| COc1ccc(S(=O)(=O)Nc2cccnc2Nc2ccc(O)cc2)cc1 [ABT-751 (E7010)] | 0.794 | 0.644 |
